The text below walks through data of ChEMBL document CHEMBL1201862, “PubChem BioAssay data set” (2004).

What is called EC50 is the concentration giving half of the maximal effect. For orientation: Ki means a dissociation constant, usually derived from enzyme kinetics or from competition with a known ligand. One may read the IC50 as the concentration needed to halve the response being measured. One may read the AC50 as the concentration at which the activity in the assay is half-maximal.

Experiment [1] concerns the target T1, High affinity choline transporter 1 (Homo sapiens, UniProt Q9GZV3).
T1 sequence (Q9GZV3 whole entry): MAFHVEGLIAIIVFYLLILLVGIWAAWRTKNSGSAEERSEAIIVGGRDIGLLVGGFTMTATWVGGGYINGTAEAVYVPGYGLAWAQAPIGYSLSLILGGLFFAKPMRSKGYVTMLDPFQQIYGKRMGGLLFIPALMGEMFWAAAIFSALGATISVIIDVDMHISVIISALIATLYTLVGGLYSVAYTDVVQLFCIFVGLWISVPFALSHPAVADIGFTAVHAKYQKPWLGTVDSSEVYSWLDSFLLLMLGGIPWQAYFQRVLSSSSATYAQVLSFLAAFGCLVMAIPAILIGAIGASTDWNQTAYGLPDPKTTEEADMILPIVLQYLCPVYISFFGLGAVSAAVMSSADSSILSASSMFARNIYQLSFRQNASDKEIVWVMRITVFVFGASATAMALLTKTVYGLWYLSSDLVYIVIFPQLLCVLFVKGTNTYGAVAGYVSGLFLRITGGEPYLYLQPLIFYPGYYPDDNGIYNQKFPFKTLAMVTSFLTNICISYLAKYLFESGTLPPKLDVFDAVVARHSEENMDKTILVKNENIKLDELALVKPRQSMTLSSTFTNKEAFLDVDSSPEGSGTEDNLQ
Put plainly: human choline transporter potentiators, potency – cell-based, 10-point CRC, membrane potential dye, dose response (AID 602376). Type of experiment: functional.

Experiment [2] deals with cGMP-dependent protein kinase 1 (Homo sapiens, UniProt Q13976). It counts as functional.
The target of experiment [3] is RAC-gamma serine/threonine-protein kinase (Homo sapiens, UniProt Q9Y243). It counts as functional.
Chain of RAC-gamma serine/threonine-protein kinase (Q9Y243 whole entry): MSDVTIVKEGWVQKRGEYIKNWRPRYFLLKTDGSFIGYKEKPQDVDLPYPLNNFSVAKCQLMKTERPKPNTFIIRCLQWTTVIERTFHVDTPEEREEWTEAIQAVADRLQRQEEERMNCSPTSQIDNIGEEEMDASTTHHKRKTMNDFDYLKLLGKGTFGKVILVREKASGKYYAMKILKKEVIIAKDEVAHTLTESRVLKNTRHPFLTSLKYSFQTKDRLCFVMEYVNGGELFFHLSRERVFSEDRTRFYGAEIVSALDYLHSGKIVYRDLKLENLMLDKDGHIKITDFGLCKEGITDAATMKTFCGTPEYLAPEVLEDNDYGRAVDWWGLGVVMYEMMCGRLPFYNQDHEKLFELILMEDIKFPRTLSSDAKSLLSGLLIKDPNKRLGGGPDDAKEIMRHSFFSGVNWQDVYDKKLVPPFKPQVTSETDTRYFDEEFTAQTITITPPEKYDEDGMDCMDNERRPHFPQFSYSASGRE
Experiment [4] has as its target Serine/threonine-protein kinase D2 (Homo sapiens, UniProt Q9BZL6). It counts as functional.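 Also: measured against PRKD2 as one member of a kinome-wide kinase profiling panel.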
For experiment [5], the target named is Serine/threonine-protein kinase pim-1 (Homo sapiens, UniProt P11309). It counts as functional.
Chain of Serine/threonine-protein kinase pim-1 (P11309 whole entry): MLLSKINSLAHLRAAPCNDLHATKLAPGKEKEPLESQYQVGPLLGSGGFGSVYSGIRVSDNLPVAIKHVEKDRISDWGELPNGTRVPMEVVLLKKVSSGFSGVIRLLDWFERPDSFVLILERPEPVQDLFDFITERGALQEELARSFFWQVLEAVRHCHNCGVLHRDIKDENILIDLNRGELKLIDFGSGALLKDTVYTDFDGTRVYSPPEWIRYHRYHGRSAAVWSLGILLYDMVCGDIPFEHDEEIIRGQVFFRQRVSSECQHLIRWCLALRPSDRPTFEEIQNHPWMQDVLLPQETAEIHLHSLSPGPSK
For experiment [6], the target named is MAP kinase-activated protein kinase 5 (Homo sapiens, UniProt Q8IW41). It counts as functional.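 Also: measured as one member of a kinome panel.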
Chain of MAP kinase-activated protein kinase 5 (Q8IW41 whole entry, canonical isoform): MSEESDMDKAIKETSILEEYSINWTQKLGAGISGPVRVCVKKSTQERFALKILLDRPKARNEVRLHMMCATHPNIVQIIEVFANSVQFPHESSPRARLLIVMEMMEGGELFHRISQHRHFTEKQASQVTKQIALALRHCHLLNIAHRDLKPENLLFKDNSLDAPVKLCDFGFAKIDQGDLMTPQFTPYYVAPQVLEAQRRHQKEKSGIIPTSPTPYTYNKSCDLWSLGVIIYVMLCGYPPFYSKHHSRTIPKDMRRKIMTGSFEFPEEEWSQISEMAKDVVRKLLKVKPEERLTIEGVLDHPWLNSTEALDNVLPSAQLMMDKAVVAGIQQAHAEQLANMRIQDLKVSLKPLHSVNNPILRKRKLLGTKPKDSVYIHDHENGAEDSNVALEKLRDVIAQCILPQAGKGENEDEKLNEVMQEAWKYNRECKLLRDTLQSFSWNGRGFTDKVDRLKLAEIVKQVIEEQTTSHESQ
Experiment [7] concerns the target Casein kinase I isoform alpha (Homo sapiens, UniProt P48729). Type of experiment: functional.
The target in experiment [8] is Homeodomain-interacting protein kinase 2 (Homo sapiens, UniProt Q9H2X6). It counts as functional.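 Also: measured within a kinome-wide kinase profiling panel, HIPK2 being one panel member.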
Experiment [9] deals with Calcium/calmodulin-dependent protein kinase kinase 2 (Homo sapiens, UniProt Q96RR4). Put plainly: Navigating the Kinome. Panel member name: CAMKK2. It counts as functional.
Chain of Calcium/calmodulin-dependent protein kinase kinase 2 (Q96RR4 whole entry): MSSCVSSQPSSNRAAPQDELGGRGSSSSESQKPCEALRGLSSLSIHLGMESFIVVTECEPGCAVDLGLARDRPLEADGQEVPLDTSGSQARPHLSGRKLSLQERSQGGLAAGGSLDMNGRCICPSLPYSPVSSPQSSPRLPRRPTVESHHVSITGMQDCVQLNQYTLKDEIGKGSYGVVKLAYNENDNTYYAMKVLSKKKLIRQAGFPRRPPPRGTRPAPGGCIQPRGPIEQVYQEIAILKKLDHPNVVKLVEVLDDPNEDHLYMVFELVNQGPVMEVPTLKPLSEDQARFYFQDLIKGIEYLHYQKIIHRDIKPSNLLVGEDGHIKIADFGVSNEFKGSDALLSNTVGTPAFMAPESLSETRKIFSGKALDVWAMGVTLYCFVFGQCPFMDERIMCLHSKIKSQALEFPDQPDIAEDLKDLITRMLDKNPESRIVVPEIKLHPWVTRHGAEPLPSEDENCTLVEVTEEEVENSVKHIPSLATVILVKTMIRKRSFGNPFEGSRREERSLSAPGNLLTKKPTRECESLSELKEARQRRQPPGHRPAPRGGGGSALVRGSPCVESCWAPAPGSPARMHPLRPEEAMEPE
For experiment [10], the target named is Serine/threonine-protein kinase pim-3 (Homo sapiens, UniProt Q86V86). It counts as functional.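 Also: value obtained as one member of a broad kinase panel profiling effort.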
Experiment [11] concerns the target Protein kinase C gamma type (Homo sapiens, UniProt P05129). It counts as functional.
Experiment [12] deals with Casein kinase I isoform delta (Homo sapiens, UniProt P48730). Type of experiment: functional.
In experiment [13] the target is Calcium/calmodulin-dependent protein kinase type II subunit beta (Homo sapiens, UniProt Q13554). Type of experiment: functional.
The target in experiment [14] is Dual specificity tyrosine-phosphorylation-regulated kinase 4 (Homo sapiens, UniProt Q9NR20). It counts as functional.
Experiment [15] has as its target Protein kinase C iota type (Homo sapiens, UniProt P41743). Type of experiment: functional.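 Also: measured within a kinome-wide kinase panel, PRKCI as panel member.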
Experiment [16] has as its target Dual specificity tyrosine-phosphorylation-regulated kinase 1B (Homo sapiens, UniProt Q9Y463). Put plainly: Navigating the Kinome. Panel member name: DYRK1B. It counts as functional.
The target of experiment [17] is T2, cAMP-dependent protein kinase catalytic subunit PRKX (Homo sapiens, UniProt P51817).
T2 sequence (P51817 whole entry): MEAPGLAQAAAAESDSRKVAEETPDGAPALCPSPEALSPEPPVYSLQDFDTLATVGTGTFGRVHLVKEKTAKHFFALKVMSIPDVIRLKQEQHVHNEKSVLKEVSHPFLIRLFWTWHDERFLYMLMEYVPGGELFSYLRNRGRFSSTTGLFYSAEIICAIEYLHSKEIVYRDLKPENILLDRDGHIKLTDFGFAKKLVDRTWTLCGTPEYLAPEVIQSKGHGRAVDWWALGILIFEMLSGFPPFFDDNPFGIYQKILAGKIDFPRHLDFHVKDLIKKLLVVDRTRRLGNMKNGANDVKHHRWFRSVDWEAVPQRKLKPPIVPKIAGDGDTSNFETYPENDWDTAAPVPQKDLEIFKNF
Type of experiment: functional.

In experiment [18] the target is RAC-alpha serine/threonine-protein kinase (Homo sapiens, UniProt P31749). It counts as functional.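 Also: AKT1 affinity measured as one member of a kinome-wide kinase profiling panel.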
In experiment [19] the target is Serine/threonine-protein kinase pim-2 (Homo sapiens, UniProt Q9P1W9). Type of experiment: functional.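 Also: value comes from a broad kinase panel profiling study in which PIM2 was one of the panel members.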
Experiment [20] concerns the target Cyclin-dependent kinase 9 (Homo sapiens, UniProt P50750). It counts as functional.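 Also: value from the CDK9 entry of a kinome-spanning kinase panel.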
Experiment [21] concerns the target Mitogen-activated protein kinase 14 (Homo sapiens, UniProt Q16539). It counts as functional.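 Also: part of a kinome-wide panel, MAPK14 entry.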
The target in experiment [22] is Melanin-concentrating hormone receptor 1 (Homo sapiens, UniProt Q99705). Put plainly: Late-stage fluorescence-based counterscreen for antagonists of the G-protein coupled receptor 7 (GPR7): cell-based dose response assay to identify antagonists of the melanin-concentrating hormone receptor 1 (MCHR1) Set 6. Type of experiment: functional. Background: Counterscreens check selectivity or assay interference.
Chain of Melanin-concentrating hormone receptor 1 (Q99705 whole entry): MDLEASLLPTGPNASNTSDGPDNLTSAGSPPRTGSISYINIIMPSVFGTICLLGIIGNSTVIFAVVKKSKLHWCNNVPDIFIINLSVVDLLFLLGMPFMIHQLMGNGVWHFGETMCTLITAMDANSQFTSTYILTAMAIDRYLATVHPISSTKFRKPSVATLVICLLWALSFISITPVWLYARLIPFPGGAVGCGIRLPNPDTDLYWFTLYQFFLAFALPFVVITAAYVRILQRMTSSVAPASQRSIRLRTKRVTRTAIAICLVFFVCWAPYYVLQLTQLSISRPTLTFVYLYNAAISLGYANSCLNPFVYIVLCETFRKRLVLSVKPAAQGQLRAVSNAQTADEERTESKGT

The target in experiment [23] is T3, Neuropeptides B/W receptor type 1 (Homo sapiens, UniProt P48145).
T3 sequence (P48145 whole entry): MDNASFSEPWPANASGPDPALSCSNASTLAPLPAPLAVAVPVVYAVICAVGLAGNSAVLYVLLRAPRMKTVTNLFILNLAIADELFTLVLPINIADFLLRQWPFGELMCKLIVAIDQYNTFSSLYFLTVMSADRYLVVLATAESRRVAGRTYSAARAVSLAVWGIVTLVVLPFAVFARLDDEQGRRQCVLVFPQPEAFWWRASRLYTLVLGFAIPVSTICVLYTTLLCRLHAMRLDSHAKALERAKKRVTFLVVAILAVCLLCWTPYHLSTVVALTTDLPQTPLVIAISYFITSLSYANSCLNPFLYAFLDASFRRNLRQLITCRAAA
Put plainly: human NPBW1 receptor blockade, IC50 – cell-based, fluorescence, dose response, set 6, late-stage follow-up (AID 588583). Type of experiment: functional.

The next experiment deals with INS1. Put plainly: suppression of NO production in INS-1E cells – cell-based, Griess absorbance, dry powder, set 2, dose response (AID 488868). Type of experiment: functional. The settings on record: Rattus norvegicus.
A further experiment deals with CHO. Put plainly: CHO cell viability loss, potency – luminescence, cytotoxicity control for TLR9-MyD88 binding inhibitor project, dose response (AID 588339).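 Also: CHO cells stably coexpressing TLR9 and MyD88 fusions from primary screen; compound exposure lasted 48 hours before viability readout.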 Type of experiment: functional, cell-based, hamster. The conditions noted are these: Cricetulus griseus.
The target in experiment [24] is T4, Replicative DNA helicase DnaB (Mycobacterium tuberculosis, UniProt P9WMR3).
T4 sequence (P9WMR3 whole entry): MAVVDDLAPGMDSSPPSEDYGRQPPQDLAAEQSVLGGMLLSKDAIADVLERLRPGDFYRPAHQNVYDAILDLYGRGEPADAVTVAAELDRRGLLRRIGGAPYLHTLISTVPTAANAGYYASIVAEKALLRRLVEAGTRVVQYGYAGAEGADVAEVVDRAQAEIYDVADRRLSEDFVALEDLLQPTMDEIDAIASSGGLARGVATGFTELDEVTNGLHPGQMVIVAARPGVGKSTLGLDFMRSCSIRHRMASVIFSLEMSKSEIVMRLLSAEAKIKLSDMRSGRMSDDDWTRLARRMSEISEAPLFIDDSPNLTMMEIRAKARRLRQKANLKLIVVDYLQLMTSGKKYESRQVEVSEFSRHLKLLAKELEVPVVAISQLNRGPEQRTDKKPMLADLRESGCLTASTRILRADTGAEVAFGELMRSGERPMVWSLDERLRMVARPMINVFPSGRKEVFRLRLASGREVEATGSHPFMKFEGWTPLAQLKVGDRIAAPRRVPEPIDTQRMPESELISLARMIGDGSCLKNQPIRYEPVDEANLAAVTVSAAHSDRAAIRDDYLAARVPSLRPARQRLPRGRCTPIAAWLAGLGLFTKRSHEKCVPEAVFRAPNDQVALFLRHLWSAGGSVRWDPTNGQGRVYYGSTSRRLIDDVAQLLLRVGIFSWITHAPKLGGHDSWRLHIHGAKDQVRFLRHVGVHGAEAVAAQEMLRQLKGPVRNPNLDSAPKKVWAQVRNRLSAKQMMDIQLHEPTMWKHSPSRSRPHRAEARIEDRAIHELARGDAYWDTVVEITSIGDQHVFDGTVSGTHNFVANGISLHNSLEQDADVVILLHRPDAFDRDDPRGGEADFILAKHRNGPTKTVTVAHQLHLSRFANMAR
Put plainly: DnaB intein splicing inhibitors, dose response, biochemical, cell-free fluorescence (AID 449749). Type of experiment: functional.

Experiment [25] has as its target T1, High affinity choline transporter 1. Put plainly: human choline transporter blockers, potency – cell-based, 5-point CRC, membrane potential dye, dose response (AID 504840). Type of experiment: functional.
A further experiment deals with T5, Protein RecA (Mycobacterium tuberculosis, UniProt P9WHJ3).
T5 sequence (P9WHJ3 whole entry): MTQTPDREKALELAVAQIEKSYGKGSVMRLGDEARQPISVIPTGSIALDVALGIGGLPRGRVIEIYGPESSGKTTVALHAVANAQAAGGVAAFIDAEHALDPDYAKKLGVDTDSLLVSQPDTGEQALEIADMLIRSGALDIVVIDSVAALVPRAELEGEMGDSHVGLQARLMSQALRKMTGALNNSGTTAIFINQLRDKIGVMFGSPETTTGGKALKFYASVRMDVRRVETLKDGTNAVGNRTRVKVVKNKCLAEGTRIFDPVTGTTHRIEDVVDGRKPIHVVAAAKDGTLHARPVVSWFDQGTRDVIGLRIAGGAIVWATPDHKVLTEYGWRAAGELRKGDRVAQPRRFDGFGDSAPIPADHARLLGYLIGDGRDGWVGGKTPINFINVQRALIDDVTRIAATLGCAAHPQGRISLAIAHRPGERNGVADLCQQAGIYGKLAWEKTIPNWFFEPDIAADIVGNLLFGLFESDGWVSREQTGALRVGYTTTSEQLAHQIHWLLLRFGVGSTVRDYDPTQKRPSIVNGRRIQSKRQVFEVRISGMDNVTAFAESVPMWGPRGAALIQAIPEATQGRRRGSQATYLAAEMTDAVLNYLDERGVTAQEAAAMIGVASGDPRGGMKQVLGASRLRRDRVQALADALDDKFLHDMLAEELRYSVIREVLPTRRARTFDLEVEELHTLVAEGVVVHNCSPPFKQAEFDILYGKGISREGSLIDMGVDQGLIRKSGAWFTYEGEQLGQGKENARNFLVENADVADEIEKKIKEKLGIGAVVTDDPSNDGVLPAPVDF
Put plainly: Fluorescence Cell-Free Homogeneous Dose Retest to Identify Inhibitors of RecA-Intein Splicing Activity. [Related pubchem assays (depositor defined):AID2097, AID2223, AID489010, AID492950]. It counts as functional.

The target of the next experiment is Beta Lactamase (Pseudomonas aeruginosa, UniProt Q932Y6). Put plainly: BLA reporter interference, concentration series – BLA reporter cells, FRET fluorescence, artefact control for TLR9-MyD88 binding inhibitor project, dose response (AID 588341).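 Also: cell based assay in CHO-K1 cells stably expressing beta-lactamase.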 It counts as cell-based.
Chain of Beta Lactamase (Q932Y6 whole entry): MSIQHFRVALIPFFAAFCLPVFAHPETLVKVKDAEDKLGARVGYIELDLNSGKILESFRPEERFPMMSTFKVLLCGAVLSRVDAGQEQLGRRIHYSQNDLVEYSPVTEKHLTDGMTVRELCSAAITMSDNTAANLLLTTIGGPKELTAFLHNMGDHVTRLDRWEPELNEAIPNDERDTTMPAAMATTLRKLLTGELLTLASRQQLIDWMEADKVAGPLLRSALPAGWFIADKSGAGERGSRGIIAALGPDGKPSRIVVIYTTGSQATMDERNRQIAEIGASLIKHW
Experiment [26] can be described thus: reduction of Shn3 3'UTR-driven luciferase in osteoblasts – cell-based, Clone20 osteoblasts, firefly luciferase, cherry-picked, dose response (AID 624132).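 Also: firefly luciferase luminescence from reporter carrying the Shn3 3'UTR in osteoblasts.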 Type of experiment: functional.
Experiment [27] is described as follows: loss of viability in HepG2 cells – cell-based, CellTiter-Glo, cherry-picked, cytotoxicity control for Shn3 inhibitor project, dose response (AID 624134). It counts as functional. On the technique in general: Cellular ATP, detected with luciferase, serves as a proxy for viable cell number.
A short description of experiment [28]: non-specific 3'UTR reporter inhibition in Clone20-Shn3RL – cell-based, Renilla luciferase, cherry-picked, counter-screen for Shn3 inhibitor project, dose response (AID 624133). It counts as functional.

The source made the active and inactive calls. Where only a bound is given, the exact number is not on record here.

Chain of Serine/threonine-protein kinase D2 (Q9BZL6 whole entry): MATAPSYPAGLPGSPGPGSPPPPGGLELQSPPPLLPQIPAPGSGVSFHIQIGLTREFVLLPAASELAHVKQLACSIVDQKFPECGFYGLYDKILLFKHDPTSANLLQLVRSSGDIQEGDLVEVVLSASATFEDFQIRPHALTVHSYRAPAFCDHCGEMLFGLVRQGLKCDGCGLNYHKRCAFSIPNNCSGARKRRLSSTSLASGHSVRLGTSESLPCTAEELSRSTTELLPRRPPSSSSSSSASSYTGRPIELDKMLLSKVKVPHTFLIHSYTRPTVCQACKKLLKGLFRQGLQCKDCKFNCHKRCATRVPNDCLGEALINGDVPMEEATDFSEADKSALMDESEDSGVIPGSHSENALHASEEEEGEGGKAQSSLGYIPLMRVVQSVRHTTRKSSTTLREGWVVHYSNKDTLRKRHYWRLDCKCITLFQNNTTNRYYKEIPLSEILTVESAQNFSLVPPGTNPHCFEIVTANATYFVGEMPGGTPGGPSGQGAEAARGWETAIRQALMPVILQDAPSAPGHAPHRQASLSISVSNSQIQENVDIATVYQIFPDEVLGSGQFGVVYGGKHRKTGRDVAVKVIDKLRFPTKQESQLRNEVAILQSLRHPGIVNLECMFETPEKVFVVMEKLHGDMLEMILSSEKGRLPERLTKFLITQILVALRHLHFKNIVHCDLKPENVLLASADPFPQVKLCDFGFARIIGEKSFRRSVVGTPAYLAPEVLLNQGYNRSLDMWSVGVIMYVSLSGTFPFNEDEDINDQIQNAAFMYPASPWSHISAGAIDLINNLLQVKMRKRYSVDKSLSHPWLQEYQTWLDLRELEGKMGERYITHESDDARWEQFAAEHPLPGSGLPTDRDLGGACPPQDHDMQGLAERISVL
Chain of Casein kinase I isoform alpha (P48729 whole entry, canonical isoform): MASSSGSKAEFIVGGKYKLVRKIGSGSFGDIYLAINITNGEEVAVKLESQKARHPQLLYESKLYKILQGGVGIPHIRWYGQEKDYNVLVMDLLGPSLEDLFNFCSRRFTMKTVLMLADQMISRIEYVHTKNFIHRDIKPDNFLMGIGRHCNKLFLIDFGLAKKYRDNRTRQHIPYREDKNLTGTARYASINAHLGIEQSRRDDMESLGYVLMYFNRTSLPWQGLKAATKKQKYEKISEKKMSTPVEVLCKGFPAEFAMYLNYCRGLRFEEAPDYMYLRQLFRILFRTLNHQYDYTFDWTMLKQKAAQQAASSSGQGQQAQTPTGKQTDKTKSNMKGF
Chain of Dual specificity tyrosine-phosphorylation-regulated kinase 1B (Q9Y463 whole entry): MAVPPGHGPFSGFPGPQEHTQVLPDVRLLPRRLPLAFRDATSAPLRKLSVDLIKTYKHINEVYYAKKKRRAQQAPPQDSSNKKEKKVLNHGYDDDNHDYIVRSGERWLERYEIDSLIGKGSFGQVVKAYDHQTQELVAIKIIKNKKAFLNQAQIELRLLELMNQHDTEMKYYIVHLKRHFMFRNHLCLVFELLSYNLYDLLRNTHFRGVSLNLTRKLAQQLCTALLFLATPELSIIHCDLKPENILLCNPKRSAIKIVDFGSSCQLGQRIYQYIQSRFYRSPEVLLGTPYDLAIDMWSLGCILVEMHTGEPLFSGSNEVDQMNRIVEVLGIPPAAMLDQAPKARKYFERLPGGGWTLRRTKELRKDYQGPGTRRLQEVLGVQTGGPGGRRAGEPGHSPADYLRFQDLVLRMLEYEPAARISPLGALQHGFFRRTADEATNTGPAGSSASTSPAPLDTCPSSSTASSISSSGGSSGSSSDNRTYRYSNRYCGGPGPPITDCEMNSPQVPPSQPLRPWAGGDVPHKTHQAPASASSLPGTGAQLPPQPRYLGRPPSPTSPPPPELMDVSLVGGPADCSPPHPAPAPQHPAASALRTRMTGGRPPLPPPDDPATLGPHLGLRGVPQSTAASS
Chain of Mitogen-activated protein kinase 14 (Q16539 whole entry): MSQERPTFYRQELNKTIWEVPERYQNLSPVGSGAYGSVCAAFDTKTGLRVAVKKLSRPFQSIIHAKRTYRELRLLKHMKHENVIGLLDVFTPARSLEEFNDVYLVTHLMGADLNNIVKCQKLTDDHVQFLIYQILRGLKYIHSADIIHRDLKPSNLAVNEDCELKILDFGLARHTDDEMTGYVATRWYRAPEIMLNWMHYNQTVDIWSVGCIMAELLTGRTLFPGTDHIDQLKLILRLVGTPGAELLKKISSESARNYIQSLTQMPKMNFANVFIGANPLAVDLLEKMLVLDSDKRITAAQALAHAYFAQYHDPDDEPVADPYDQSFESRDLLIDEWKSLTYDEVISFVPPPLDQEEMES

On to `COc1ccc(N2C(=O)/C(=C\c3ccco3)N=C2SCC(=O)N(C(C)C)C(C)C)cc1Cl`, for which the half-maximal effective concentration (EC50) in experiment [1] is 17.6 µM (active).
In the case of `COc1cc(Nc2ncc(F)c(Nc3ccc4c(n3)NC(=O)C(C)(C)O4)n2)cc(OC)c1OC` [R-406], the Ki in [2] is > 2 µM (inactive); in experiment [3], > 10 µM (inactive); in [4], 0.631 µM (active); in [5] it was > 6.31 µM (inactive); in experiment [6], > 1.58 µM (inactive); in experiment [7], > 5.01 µM (inactive). The Ki was 0.2 µM (active) in experiment [8]; > 2.51 µM (inactive) in experiment [9]; 0.631 µM (active) in experiment [10]; 0.251 µM (active) in experiment [11]; > 7.94 µM (inactive) in experiment [12]; > 7.94 µM (inactive) in experiment [13]. In addition, the Ki is 1.58 µM (active) in experiment [14]; > 5.01 µM (inactive) in experiment [15]; > 2.51 µM (inactive) in experiment [16]; > 2.51 µM (inactive) in experiment [17]; > 7.94 µM (inactive) in experiment [18]; > 1.58 µM (inactive) in [19]. Also, the Ki in experiment [20] is > 1.58 µM (inactive); in experiment [21] it was > 3.98 µM (inactive).
Turning to `N#CC(c1ccc(C(F)(F)F)cc1)c1c(Cl)cnn(Cc2cccc3ccccc23)c1=O` (configuration not stated), the IC50 in experiment [22] and in experiment [23] was 0.699 µM (active) in each case.
For the compound `C[C@@H]1CN([C@@H](C)CO)C(=O)c2cccc(NC(=O)Nc3cccc4ccccc34)c2O[C@H]1CN(C)S(=O)(=O)c1ccccc1`, in the experiment with INS1, the concentration at half-maximal activity (AC50) is 36.1 µM (active).
Turning to `COc1cccc(NC(=O)c2nc(S(C)(=O)=O)ncc2Cl)c1`, the IC50 in the experiment on CHO is 5.41 µM (active); in experiment [25], 14.5 µM (active); on Beta Lactamase, 8.9 µM (active). In addition, the AC50 in [24] is 0.111 µM (inconclusive); in experiment [26], 0.834 µM (active); in experiment [27], 22 µM (active); in experiment [28], 11.5 µM (active). In addition, the concentration for a half-maximal effect (EC50) at Protein RecA was 6.17 µM (active).
